{"source": "patent US20100204295A1", "about": "“TREATMENT OF ALLERGIC DISEASE WITH IMMUNOMODULATOR COMPOUNDS” (SCICLONE PHARMACEUTICALS, INC., priority 2007, published 2010)", "system": "anti-OvA IgE", "experiment": "Titer of anti-OvA IgE in serum and BAL by solid phase IFA, ovalbumin asthma model", "type": "in vivo, mice of the Balb/C line", "conditions": "for Titer IgE BAL, dilution 1:8, % of average of the control group / Titer IgE of serum, dilution 1:640, % of average of the control group: animals 6 to 8 weeks; for Titer IgE BAL, dilution 1:32, % of average of the control group / Titer IgE of serum, dilution 1:400, % of average of the control group: animals 18 to 20 weeks", "text": "Female, non-pathogenic mice of the Balb/C line (“Pushchtino” laboratory animal breeders) were kept under conditions of an SPF-vivarium at a constant temperature, 12-hour day/night cycle, and received sterile feed and water ad libitum. In two series of experiments, mice from 6-8 weeks and 18-20 weeks of age were used at the beginning of the experiment, respectively.\nThe animals were immunized twice at 5-day intervals with an ovalbumin solution (Sigma) in an adjuvant based on ammonium sulfate at a dosage of 8 μg per mouse. SCV-07 was administered intra-abdominally in a volume of 200 μL at a dosage of 0.1 or 1.0 μg/kg in PBS once a day from 6 through 11 days after the first immunization. The control group received physiological saline on the same days. Each group comprised 6 to 10 animals. On the 12th, 16th and 20th days after the first immunization, the animals were then placed in a hermetic box, in which an aerosol of 1% ovalbumin solution (OvA) in PBS was generated with an ultrasonic nebulizer LD-207U (Little Doctor) for 1 minute with continuous mixing of air. The duration of exposure of the animals to the aerosol was 15 minutes. Analysis of the severity of experimental allergic asthma was carried out 24 hours after the last aerosol exposure.\nThe peripheral blood was collected from the retro-orbital sinus. The titer of anti-OvA IgE in the serum and bronchoalveolar lavage was determined with solid phase IFA according to the following scheme. Rat antibodies to murine IgE labeled with biotin (Caltag) were introduced to a 96-well plate for IFA ((Corning Costar) in the dilution recommended by the manufacturer (100 μL/well), incubated for an hour at room temperature and washed. Serum samples or BAL were then introduced in successive dilutions and incubated at room temperature for an hour and washed. OvA was then added, labeled with horseradish peroxidase, incubated on a shaker for an hour at room temperature, washed and the substrate for peroxidase introduced (OPD, Sigma) and incubated for 15 minutes. The reaction was stopped by adding 1 M H2SO4 and the plates were analyzed on a Victor2 spectrophotometer (Wallac) at a wavelength of 450 nm. For quantitative comparison of the titers of the antigen-specific IgE after subtracting the background, we calculated the average optical density in each dilution for samples of the animal control group, and expressed the optical densities in the samples from all animals in the experiment in corresponding dilution as the percentages of the values obtained."}
{"smiles": "N[C@H](CCC(=O)N[C@@H](Cc1c[nH]c2ccccc12)C(=O)O)C(=O)O", "note": "[SCV-07, γ-D-glutamyl-L-tryptophan]", "values": [{"measurement": "Titer IgE BAL, dilution 1:8, % of average of the control group", "setting": "0.1 μg/kg", "result": "59 ± 33 % of average of the control group"}, {"measurement": "Titer IgE of serum, dilution 1:640, % of average of the control group", "setting": "0.1 μg/kg", "result": "86 ± 42 % of average of the control group"}, {"measurement": "Titer IgE BAL, dilution 1:8, % of average of the control group", "setting": "1 μg/kg", "result": "46 ± 24 % of average of the control group"}, {"measurement": "Titer IgE of serum, dilution 1:640, % of average of the control group", "setting": "1 μg/kg", "result": "65 ± 26 % of average of the control group"}, {"measurement": "Titer IgE BAL, dilution 1:32, % of average of the control group", "setting": "0.1 μg/kg", "result": "85 ± 70 % of average of the control group"}, {"measurement": "Titer IgE of serum, dilution 1:400, % of average of the control group", "setting": "0.1 μg/kg", "result": "92 ± 44 % of average of the control group"}, {"measurement": "Titer IgE BAL, dilution 1:32, % of average of the control group", "setting": "1 μg/kg", "result": "101 ± 51 % of average of the control group"}, {"measurement": "Titer IgE of serum, dilution 1:400, % of average of the control group", "setting": "1 μg/kg", "result": "79 ± 46 % of average of the control group"}]}
